In patent publication US7071161B2, “Variants of corticotropin releasing hormone receptor Type 1 and uses thereof” (The University of Tennessee Research Corporation, priority 2001, dated 2006):
Values belong to the molecule of their own block, whether it stands above or below them.

Assays:
CRH-R1 mRNA [1] = test: CRH-R1 isoform expression by nested RT-PCR in treated HaCaT immortalized keratinocytes; format: cell-based, human; settings: 24 hours, result in words
Procedure: (§1) In some experiments, SKMEL188, HaCaT and C4-1 cells were also treated with TPA, forskolin or a mixture of IBMX (3-isobutyl-1-methylxanthine) and dbcAMP (N6, 2′-O-dibutyryladenosine 3′:5′-cyclic monophosphate sodium) (all from Sigma). Briefly, the cells were transferred to 75 cm^2 flasks ( 10^6 cells/flask) and cultured for 24 hours in standard culture medium. Then the following compounds were added to the separate cultures: TPA (200 nM), forskolin (10^−5 M), IBMX (5×10^−4 M), and dbcAMP (10^−3 M). Controls were represented by untreated cultures. The cells were incubated for 24 hours, detached, collected by centrifugation, and dissolved in RNA isolation solution (Trizol reagent).
(§2) Total RNA was extracted using a Trizol isolation kit (Gibco-BRL, Gaithersburg, Md.). The synthesis of first-strand cDNA was performed using the Superscript preamplification system (Gibco-BRL). Five μg of total RNA per reaction was reverse transcribed using oligo(dT) as the primer.
(§3) Nested PCR was used to detect different CRH-R1 isoforms. The first round of amplification of the human CRH-R1 fragment spanning exons 2–7 was conducted using 2 μl of cDNA and primers P110: 5′-[…]-3′ (sense) (SEQ ID No. 15) and P111: 5′-[…]-3′ (antisense) (SEQ ID No. 16). An aliquot of the PCR mixture from the first round of amplification was transferred to a new tube, and a second round of PCR was conducted. […]

CRH-R1 mRNA [2] = test: CRH-R1 isoform expression by nested RT-PCR in treated SKMEL188 melanoma cells; format: cell-based; settings: human melanoma cells SKMEL188; 24 hours; result in words
Procedure: as §1, §2, §3

CRH-R1α = molecular target: T1, CRH-R1α (Homo sapiens, UniProt P34998); test: cAMP accumulation in CRF or urocortin-stimulated COS cells cotransfected with CRH-R1α and isoform e or h; format: cell-based; settings: coexpression of the isoform with CRH-R1α, FIG. 7C
T1 construct: expressed in transfected cells; host or cells: COS cells, transient transfection with pCRFR1α
T1 sequence (P34998 24-415): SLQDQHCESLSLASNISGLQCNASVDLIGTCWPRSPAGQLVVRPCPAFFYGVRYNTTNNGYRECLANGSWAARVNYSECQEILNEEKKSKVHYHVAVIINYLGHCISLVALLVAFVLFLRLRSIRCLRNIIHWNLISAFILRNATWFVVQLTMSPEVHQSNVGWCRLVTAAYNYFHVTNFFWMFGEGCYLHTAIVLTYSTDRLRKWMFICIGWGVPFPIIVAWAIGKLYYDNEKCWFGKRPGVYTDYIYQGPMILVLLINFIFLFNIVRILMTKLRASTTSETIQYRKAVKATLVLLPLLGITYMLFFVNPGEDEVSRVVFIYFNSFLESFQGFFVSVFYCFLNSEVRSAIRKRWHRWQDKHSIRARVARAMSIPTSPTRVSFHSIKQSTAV
Procedure: COS cells were propagated in DMEM medium (GIBCO) supplemented with 10% Fetal Bovine serum and antibiotics (GIBCO). Ten thousand cells were routinely transfected in each well of opaque 96-well plate (Packard) by Lipophectamine (Invitrogen, Carlsbad, Calif.) according to the manufacturer's protocol.
Receptor isoforms e and h were tested for their ability to produce soluble forms of the CRH receptor that would affect the activity of the most prevalent CRH-R1α isoform. To allow detection by immunoblotting, a cDNA for the V5 protein was attached to the cDNA for the isoforms in the constructs. The constructs were thus transfected into COS cells and tested as to whether the isoform messages were translatable, and whether cotransfection of CRH-R1α with CRH-R1e or h affects the activity of CRH-R1α.
Cyclic AMP concentration was measured by a cAMP functional assay kit (Packard BioScience, Meriden, Conn.). Stimulated cells were washed 3 times by PBS and incubated for 1 hour in 25 μl of lysis buffer at room temperature. The signal was measured using a Fusion α instrument (Packard BioScience), and cAMP concentrations were recalculated from the standard curve.

Molecule: CCCCCCCCCCCCCC(=O)O[C@@H]1[C@@H](C)[C@@]2(O)[C@@H](C=C(CO)C[C@]3(O)C(=O)C(C)=C[C@@H]23)[C@@H]2C(C)(C)[C@]12OC(C)=O [TPA, phorbol 12-myristate 13-acetate]
change of CRH-R1 splicing pattern versus untreated control (CRH-R1 mRNA [1]): induced insertion of a 110 bp fragment between exons 4 and 5 of CRH-R1
change of CRH-R1 splicing pattern versus untreated control (CRH-R1 mRNA [2]): shifted the CRH-R1 splicing pattern from the CRH-R1d to the CRH-R1α isoform

CRH or urocortin-stimulated cAMP accumulation mediated by CRF-R1α (CRH-R1α): inhibits
CRH or urocortin-stimulated cAMP accumulation mediated by CRF-R1α (CRH-R1α; listed as CRF-R1h): stimulates
B1: CRH-R1h: human CRH receptor type 1 isoform with cryptic exon between exons 4 and 5; truncated protein with CRH-binding domain only (protein, listed as Homo sapiens)
chain: MGGHPQLRLVKALLLLGLNPVSASLQDQHCESLSLASNISGLQCNASVDLIGTCWPRSPAGQLVVRPCPAFFYGVRYNTTNNGYRECLANGSWAARVNYSECQEILNEEEPGTQAQPGRAHRGGT
modifications: amino acid sequence of human CRH-R1h gene GenBank Accession No. AF374231
